Experimental data reported in patent US20040063662A1, “Selenophene anti-tumor agents” (priority 1996, published 2004).

What was measured:
SN12C = assay: NCI human tumor cell panel: SN12C (Renal Cancer); type: cell-based; details: Renal Cancer
786-0 = assay: NCI human tumor cell panel: 786-0 (Renal Cancer); type: cell-based; details: 786-0, Renal Cancer
SF-295 = assay: NCI human tumor cell panel: SF-295 (CNS Cancer); type: cell-based; details: SF-295, CNS Cancer
K-562 = assay: NCI human tumor cell panel: K-562 (Leukemia); type: cell-based; details: K562, K-562, Leukemia
BT-549 = assay: NCI human tumor cell panel: BT-549 (Breast Cancer); type: cell-based; details: BT-549, Breast Cancer
OVCAR-4 = assay: NCI human tumor cell panel: OVCAR-4 (Ovarian Cancer); type: cell-based; details: OVCAR-4, Ovarian Cancer
OVCAR-5 = assay: NCI human tumor cell panel: OVCAR-5 (Ovarian Cancer); type: cell-based; details: OVCAR-5, Ovarian Cancer
NCI-H23 = assay: NCI human tumor cell panel: NCI-H23 (Non-Small Cell Lung Cancer); type: cell-based; details: NCI-H23, Non-Small Cell Lung Cancer
MALME-3M = assay: NCI human tumor cell panel: MALME-3M (Melanoma); type: cell-based; details: MALME-3M, Melanoma
SNB-75 = assay: NCI human tumor cell panel: SNB-75 (CNS Cancer); type: cell-based; details: SNB-75, CNS Cancer
A549/ATCC = assay: NCI human tumor cell panel: A549/ATCC (Non-Small Cell Lung Cancer); type: cell-based; details: Non-Small Cell Lung Cancer
HT29 = assay: NCI human tumor cell panel: HT29 (Colon Cancer); type: cell-based; details: HT-29, HT29, Colon Cancer
EKVX = assay: NCI human tumor cell panel: EKVX (Non-Small Cell Lung Cancer); type: cell-based; details: Non-Small Cell Lung Cancer
OVCAR-8 = assay: NCI human tumor cell panel: OVCAR-8 (Ovarian Cancer); type: cell-based; details: OVCAR-8, Ovarian Cancer
MOLT-4 = assay: NCI human tumor cell panel: MOLT-4 (Leukemia); type: cell-based; details: MOLT-4, Leukemia
HCT-15 = assay: NCI human tumor cell panel: HCT-15 (Colon Cancer); type: cell-based; details: HCT-15, Colon Cancer
TK-10 = assay: NCI human tumor cell panel: TK-10 (Renal Cancer); type: cell-based; details: TK-10, Renal Cancer
LOX IMVI = assay: NCI human tumor cell panel: LOX IMVI (Melanoma); type: cell-based; details: Melanoma
HOP-92 = assay: NCI human tumor cell panel: HOP-92 (Non-Small Cell Lung Cancer)
A498 = assay: NCI human tumor cell panel: A498 (Renal Cancer); type: cell-based; details: A498, Renal Cancer
IGROV1 = assay: NCI human tumor cell panel: IGROV1 (Ovarian Cancer); type: cell-based; details: IGROV-1, IGROV1, Ovarian Cancer
NCI-H460 = assay: NCI human tumor cell panel: NCI-H460 (Non-Small Cell Lung Cancer); type: cell-based; details: NCI-H460, Non-Small Cell Lung Cancer
HS 578T = assay: NCI human tumor cell panel: HS 578T (Breast Cancer); type: cell-based; details: Breast Cancer
PC-3 = assay: NCI human tumor cell panel: PC-3 (Prostate Cancer); type: cell-based; details: PC-3, Prostate Cancer
HOP-62 = assay: NCI human tumor cell panel: HOP-62 (Non-Small Cell Lung Cancer); type: cell-based; details: HOP-62, Non-Small Cell Lung Cancer
UACC-257 = assay: NCI human tumor cell panel: UACC-257 (Melanoma); type: cell-based; details: UACC-257, Melanoma
UACC-62 = assay: NCI human tumor cell panel: UACC-62 (Melanoma); type: cell-based; details: UACC-62, Melanoma
KM12 = assay: NCI human tumor cell panel: KM12 (Colon Cancer); type: cell-based; details: KM12, Colon Cancer
HCT-116 = assay: NCI human tumor cell panel: HCT-116 (Colon Cancer); type: cell-based; details: HCT-116, Colon Cancer
ACHN = assay: NCI human tumor cell panel: ACHN (Renal Cancer); type: cell-based; details: Renal Cancer
[1] = read-out: Log10 GI50 (converted)
[2] = read-out: Log10 TGI (converted)

O=Cc1ccc(-c2ccc(-c3ccc[se]3)[se]2)[se]1 [NSC 675244]
GI50 (SN12C; [1]): 10 µM | IC (TGI) (SN12C; [2]): 22.4 µM | GI50 (786-0; [1]): 6.03 µM | IC (TGI) (786-0; [2]): 18.6 µM | GI50 (SF-295; [1]): 15.1 µM | IC (TGI) (SF-295; [2]): 28.2 µM | GI50 (K-562; [1]): 1.35 µM | IC (TGI) (K-562; [2]): 33.1 µM | GI50 (BT-549; [1]): 12.3 µM | IC (TGI) (BT-549; [2]): 30.9 µM | GI50 (OVCAR-4; [1]): 1.58 µM | IC (TGI) (OVCAR-4; [2]): 14.8 µM | GI50 (OVCAR-5; [1]): 0.55 µM | IC (TGI) (OVCAR-5; [2]): 13.2 µM | GI50 (NCI-H23; [1]): 13.5 µM | IC (TGI) (NCI-H23; [2]): 30.9 µM | GI50 (MALME-3M; [1]): 12.6 µM | IC (TGI) (MALME-3M; [2]): 28.2 µM | GI50 (SNB-75; [1]): 2 µM | IC (TGI) (SNB-75; [2]): 6.46 µM | GI50 (A549/ATCC; [1]): 13.5 µM | IC (TGI) (A549/ATCC; [2]): 26.3 µM | GI50 (HT29; [1]): 3.24 µM | IC (TGI) (HT29; [2]): 13.2 µM | GI50 (EKVX; [1]): 25.1 µM | IC (TGI) (EKVX; [2]): 64.6 µM | GI50 (OVCAR-8; [1]): 9.12 µM | IC (TGI) (OVCAR-8; [2]): 30.2 µM | GI50 (MOLT-4; [1]): 2.4 µM | IC (TGI) (MOLT-4; [2]): 7.59 µM | GI50 (HCT-15; [1]): 7.41 µM | IC (TGI) (HCT-15; [2]): 26.3 µM | GI50 (TK-10; [1]): 0.288 µM | IC (TGI) (TK-10; [2]): 0.891 µM | GI50 (LOX IMVI; [1]): 5.62 µM | IC (TGI) (LOX IMVI; [2]): 20.9 µM | GI50 (HOP-92; HOP-92, read-out: Log10 GI50 (converted)): 11 µM | IC (TGI) (HOP-92; HOP-92, read-out: Log10 TGI): 25.7 µM | GI50 (A498; [1]): 1.41 µM | IC (TGI) (A498; [2]): 2.95 µM | GI50 (IGROV1; [1]): 3.31 µM | IC (TGI) (IGROV1; [2]): 15.5 µM | GI50 (NCI-H460; [1]): 2.24 µM | IC (TGI) (NCI-H460; [2]): 16.2 µM | GI50 (HS 578T; [1]): 7.24 µM | IC (TGI) (HS 578T; [2]): 21.9 µM | GI50 (PC-3; [1]): 12 µM | IC (TGI) (PC-3; [2]): 32.4 µM | GI50 (HOP-62; [1]): 12 µM | IC (TGI) (HOP-62; [2]): 29.5 µM | GI50 (UACC-257; [1]): 0.309 µM | IC (TGI) (UACC-257; [2]): 0.851 µM | GI50 (UACC-62; [1]): 0.0708 µM | IC (TGI) (UACC-62; [2]): 10.7 µM | GI50 (KM12; [1]): 6.31 µM | IC (TGI) (KM12; [2]): 19.5 µM | GI50 (HCT-116; [1]): 0.38 µM | IC (TGI) (HCT-116; [2]): 13.8 µM | GI50 (ACHN; [1]): 10.2 µM | IC (TGI) (ACHN; [2]): 21.9 µM
